Experimental data reported in the NIST ThermoML archive (doi:10.1021/je800026p).

Experiment: xn = mol fraction of the nth substance listed
Conditions: 101 kPa, Liquid; for speed of sound: Sing-around technique in a fixed-path interferometer; for mass density: Vibrating tube method

CCCCCCOCCOCCO [2-(2-hexyloxyethoxy)ethanol] + CCCCNCCCC
Conditions | mass density, 288.15 K [kg/m3] | mass density, 293.15 K [kg/m3] | mass density, 298.15 K [kg/m3] | mass density, 303.15 K [kg/m3] | mass density, 308.15 K [kg/m3] | speed of sound, 288.15 K [m/s] | speed of sound, 293.15 K [m/s] | speed of sound, 298.15 K [m/s] | speed of sound, 303.15 K [m/s] | speed of sound, 308.15 K [m/s]
x1 = 0.0974 | 787.886 | 783.751 | 779.614 | 775.187 | 771.079 | 1301.4 | 1282.3 | 1262.9 | 1243.7 | 1225.3
x1 = 0.1441 | 798.114 | 793.988 | 789.859 | 785.667 | 781.545 | 1308.1 | 1289.2 | 1270.5 | 1251 | 1232.2
x1 = 0.1908 | 808.103 | 804 | 799.885 | 795.785 | 791.662 | 1314.8 | 1296 | 1277.8 | 1258.2 | 1239.2
x1 = 0.253 | 820.984 | 816.934 | 812.825 | 808.731 | 804.6 | 1323.5 | 1304.8 | 1287 | 1267.7 | 1248.7
x1 = 0.2986 | 830.092 | 826.059 | 821.948 | 817.838 | 813.671 | 1329.8 | 1311.2 | 1293.6 | 1274.5 | 1255.5
x1 = 0.3606 | 842 | 837.97 | 833.834 | 829.692 | 825.52 | 1338 | 1319.7 | 1302.1 | 1283.4 | 1264.8
x1 = 0.4018 | 849.578 | 845.585 | 841.423 | 837.274 | 833.078 | 1343.4 | 1325.2 | 1307.6 | 1289.3 | 1270.9
x1 = 0.4584 | 859.635 | 855.602 | 851.46 | 847.291 | 843.095 | 1350.4 | 1332.6 | 1315 | 1297 | 1279.1
x1 = 0.5091 | 868.247 | 864.218 | 860.074 | 855.914 | 851.724 | 1356.7 | 1339 | 1321.3 | 1303.8 | 1286.2
x1 = 0.5435 | 873.936 | 869.891 | 865.751 | 861.602 | 857.401 | 1360.8 | 1343.2 | 1325.7 | 1308.2 | 1290.8
x1 = 0.587 | 880.891 | 876.847 | 872.72 | 868.58 | 864.406 | 1365.8 | 1348.4 | 1330.9 | 1313.6 | 1296.5
x1 = 0.6097 | 884.459 | 880.409 | 876.278 | 872.165 | 867.972 | 1368.4 | 1351 | 1333.6 | 1316.4 | 1299.4
x1 = 0.6572 | 891.716 | 887.648 | 883.547 | 879.461 | 875.302 | 1373.6 | 1356.4 | 1339 | 1322 | 1305
x1 = 0.7023 | 898.412 | 894.343 | 890.259 | 886.201 | 882.052 | 1378.3 | 1361.3 | 1344.1 | 1327 | 1310.1
x1 = 0.7451 | 904.586 | 900.53 | 896.459 | 892.397 | 888.281 | 1382.7 | 1365.7 | 1348.6 | 1331.6 | 1314.5
x1 = 0.8144 | 914.195 | 910.151 | 906.103 | 902.062 | 897.98 | 1389.4 | 1372.4 | 1355.5 | 1338.5 | 1320.9
x1 = 0.8675 | 921.188 | 917.168 | 913.137 | 909.095 | 905.045 | 1394.2 | 1377.2 | 1360.3 | 1343.3 | 1325
x1 = 0.9083 | 926.329 | 922.317 | 918.3 | 914.27 | 910.231 | 1397.7 | 1380.6 | 1363.7 | 1346.8 | 1327.7
x1 = 0.9414 | 930.322 | 926.329 | 922.323 | 918.281 | 914.269 | 1400.4 | 1383.2 | 1366.2 | 1349.3 | 1329.5

CCCCCCOCCOCCO [2-(2-hexyloxyethoxy)ethanol] + CCCCN(CCCC)CCCC
Conditions | mass density, 288.15 K [kg/m3] | mass density, 293.15 K [kg/m3] | mass density, 298.15 K [kg/m3] | mass density, 303.15 K [kg/m3] | mass density, 308.15 K [kg/m3] | speed of sound, 288.15 K [m/s] | speed of sound, 293.15 K [m/s] | speed of sound, 298.15 K [m/s] | speed of sound, 303.15 K [m/s] | speed of sound, 308.15 K [m/s]
x1 = 0.1168 | 797.427 | 793.696 | 789.759 | 785.812 | 782.055 | 1294 | 1274.9 | 1256 | 1237.3 | 1219
x1 = 0.1659 | 804.49 | 800.716 | 796.756 | 792.8 | 788.975 | 1298.2 | 1279.2 | 1260.3 | 1241.7 | 1223.4
x1 = 0.2092 | 810.815 | 806.993 | 803.027 | 799.078 | 795.2 | 1302.1 | 1283.1 | 1264.3 | 1245.8 | 1227.5
x1 = 0.2589 | 818.158 | 814.291 | 810.334 | 806.371 | 802.458 | 1306.8 | 1287.9 | 1269.2 | 1250.8 | 1232.5
x1 = 0.3155 | 826.596 | 822.69 | 818.738 | 814.795 | 810.825 | 1312.6 | 1293.8 | 1275.2 | 1256.8 | 1238.6
x1 = 0.3564 | 832.755 | 828.829 | 824.867 | 820.924 | 816.944 | 1316.9 | 1298.2 | 1279.7 | 1261.4 | 1243.2
x1 = 0.383 | 836.791 | 832.842 | 828.881 | 824.93 | 820.957 | 1319.8 | 1301.2 | 1282.7 | 1264.5 | 1246.4
x1 = 0.4544 | 847.683 | 843.729 | 839.761 | 835.783 | 831.821 | 1328 | 1309.5 | 1291.2 | 1273.2 | 1255.2
x1 = 0.5108 | 856.418 | 852.463 | 848.467 | 844.479 | 840.528 | 1334.9 | 1316.5 | 1298.3 | 1280.4 | 1262.6
x1 = 0.5568 | 863.63 | 859.691 | 855.668 | 851.665 | 847.701 | 1340.7 | 1322.4 | 1304.3 | 1286.5 | 1268.8
x1 = 0.6107 | 872.206 | 868.299 | 864.217 | 860.198 | 856.228 | 1347.7 | 1329.6 | 1311.6 | 1294 | 1276.4
x1 = 0.6683 | 881.543 | 877.641 | 873.531 | 869.475 | 865.486 | 1355.6 | 1337.5 | 1319.7 | 1302.2 | 1284.8
x1 = 0.6924 | 885.505 | 881.587 | 877.468 | 873.41 | 869.396 | 1358.9 | 1340.9 | 1323.2 | 1305.8 | 1288.4
x1 = 0.7544 | 895.808 | 891.893 | 887.746 | 883.674 | 879.592 | 1367.8 | 1350 | 1332.3 | 1315.2 | 1297.8
x1 = 0.7963 | 902.873 | 898.935 | 894.791 | 890.73 | 886.574 | 1373.9 | 1356.2 | 1338.7 | 1321.6 | 1304.4
x1 = 0.858 | 913.335 | 909.366 | 905.245 | 901.206 | 896.983 | 1383.2 | 1365.7 | 1348.3 | 1331.5 | 1314.2
x1 = 0.9079 | 921.784 | 917.773 | 913.7 | 909.674 | 905.434 | 1390.9 | 1373.6 | 1356.4 | 1339.6 | 1322.3
x1 = 0.9553 | 929.676 | 925.674 | 921.63 | 917.622 | 913.46 | 1398.4 | 1381.3 | 1364.2 | 1347.6 | 1330.2
